Measured values taken from US20250222068A1, “COMPOSITION FOR PREVENTING OR TREATING LUPUS COMPRISING RECOMBINANT STABILIZED GALECTIN-9 PROTEIN” (GBIOLOGICS INC., priority 2022, published 2025).

Experiment: Body weight assessment in an in vivo model of systemic lupus erythematosus
Conditions: mycophenolate 60 mg/kg PO once daily, 9 weeks, MRL/FAS^lpr mice, FIG. 1

## COc1c(C)c2c(c(O)c1C/C=C(\C)CCC(=O)O)C(=O)OC2 [Mycophenolate, mycophenolate]
  changes in body weight: no statistically significant changes in body weight
